The values below come from PubChem BioAssay AID179 (DTP/NCI, 2004).

Activity calls are given as the source filed them.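 The calls were made as follows: active = compounds giving half or more protection of infected cells from virus-caused growth loss, again on retest; inactive = the rest.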 Where a SMILES comes first, the peptide text is derived from it. [ ]: non-standard residue; d: D form. The star is where a group is joined. Phe(4-NO2) = N[CH](Cc1ccc([N+](=O)[O-])cc1)C(=O)O; Cbz = O=C(OCc1ccccc1)*

This assay relates to CEM cells HIV-1 protection, formazan growth assay. Kind of assay: NCI AIDS Antiviral Assay. The note with it: for IC50: measured here: growth of uninfected CEM cells. The procedure, abridged:
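Soluble formazan readout of cell growth; CEM cells ± HIV-1; 5 drug concs. ≥50% protection → retest; ≥50% again = moderately active; reproducible 100% = confirmed active.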

As for `CCOC(=O)CCC(NC(=O)OCc1ccccc1)C(=O)NC(CCC(=O)OCC)C(=O)NC(CCC(=O)OCC)C(=O)NC(CCC(=O)OCC)C(=O)NC(CCC(=O)OCC)C(=O)NC(Cc1ccc([N+](=O)[O-])cc1)C(=O)NC(CCC(=O)OCC)C(=O)NC(CCC(=O)OCC)C(=O)NC(CCC(=O)OCC)C(=O)NC(CCC(=O)OCC)C(=O)NC(CCC(=O)OCC)C(=O)OCC` (stereo not drawn) (Cbz-E(OEt)E(OEt)E(OEt)E(OEt)E(OEt)[Phe(4-NO2)]E(OEt)E(OEt)E(OEt)E(OEt)E(OEt)-OEt; configuration not given here), the EC50 is over 50.1 µM and the concentration for half-maximal inhibition (IC50) was over 50.1 µM.
With `O=C1CCC2(C=Nc3ccccc32)C2Cc3ccccc3N12` (stereo not drawn), the EC50 is over 13.2 µM and the half-inhibitory concentration (IC50) is over 13.2 µM.
On to `Nc1c(-c2ccccc2[N+](=O)[O-])nc2ccccn12`, for which the EC50 was over 513 µM and the IC50 was found to be 120 µM.
With `COc1cc2c(cc1O)C(Cc1ccc(Oc3cc(C[C@H]4c5cc(OC)c(OC)cc5CCN4C)ccc3OC)cc1)N(C)CC2` (stereo partly drawn), the result was inactive.
`O=C(N/N=C\c1ccco1)c1ccncc1`: the EC50 was over 200 µM and the 50% inhibitory concentration (IC50) was over 200 µM.
Consider `CC1=NN(C(=O)CC(=O)Nc2ccccc2)C(=O)C1N=Nc1ccc(S(N)(=O)=O)cc1` (stereo not drawn), for which the EC50 is over 151 µM and the 50% inhibitory concentration (IC50) came out at 75.9 µM.
For `CCCCCCCCCCCCCCCCCC(=O)O[C@H](COC(=O)CCCCCCCCCCC)COC(=O)CCCCCCCCCCCCCCC`, in that order: over 100 µM and over 100 µM.
Taken in the same sequence, the figures for `Cc1ccc2c3c4c(ccc13)C(C)(C)OC4=C(C(C)C)C2=O` were over 200 µM and 15.8 µM.
Regarding `O=C1C=C(Br)c2c(-c3ccccc3)oc3cccc1c23`, the result was inactive.
With `CCOC(=O)CC(=O)ON(C)C(C)=O`, the EC50 is over 251 µM and the concentration for half-maximal inhibition (IC50) was over 251 µM.
`CC(=O)OC1CCN(C)CC1CCl` (stereo not drawn): the EC50 was over 200 µM and the IC50 was over 200 µM.
Regarding `CC1C(=O)C(C)C(c2cccs2)N(N=O)C1c1cccs1` (stereo not drawn), the EC50 is over 58.9 µM and the IC50 amounted to 37.2 µM.
Take `C[C@]12OC[C@H](c3ccccc3)N1C(=O)C1[C@H]2CC12SCCS2` (stereo partly drawn): the EC50 was over 200 µM and the half-inhibitory concentration (IC50) stood at 178 µM.
Take `CCOC(=O)C1Oc2ccc([N+](=O)[O-])cc2C1(C)O` (stereo not drawn): the outcome was inactive.
Turning to `O=C1[C@@H]2C(c3ccccc3Br)=NO[C@@H]2C(=O)N1c1ccc(Cc2ccc(N3C(=O)[C@H]4C(c5ccccc5Br)=NO[C@H]4C3=O)cc2)cc1`, the EC50 was over 9.55 µM and the IC50 was over 9.55 µM.
Regarding `CN1C(=O)c2ccccc2Cc2c(NCc3ccccc3)ncnc21`, the EC50 was over 89.1 µM and the IC50 amounted to 19.1 µM.
For `COc1ccc(/C=C2\CSC/C(=C\c3ccc(OC)c(OC)c3OC)C2=O)c(OC)c1OC`, in that order: over 200 µM and 15.5 µM.
For `C/C(CN1C(=O)c2ccccc2C1=O)=N\NS(=O)(=O)c1cccc([N+](=O)[O-])c1`, in that order: over 617 µM and over 617 µM.
On to `O=c1cc(O)c2ccccc2o1`, for which the EC50 was over 1550 µM and the half-inhibitory concentration (IC50) was 617 µM.
Taken in the same sequence, the figures for `O=C1COC(c2ccccc2O)=NN1Cc1ccccc1` were over 49 µM and over 49 µM.
Taken in the same sequence, the figures for `O=c1[nH]cnc2cc3c(cc12)nc1n3CCOC1` were over 52.5 µM and over 52.5 µM.
Taken in the same sequence, the figures for `NNc1c(C(N)=O)c2c(N)ncnc2n1C1OC(CO)C(O)C1O` (stereo not drawn) were over 0.2 µM and 0.00912 µM.
`CCCc1noc(C(F)(F)Sc2ncccn2)n1`: the EC50 is over 200 µM and the IC50 was over 200 µM.
On to `COc1ccc(OC)c(CCc2cc(OC)ccc2OC)c1`, for which the EC50 is over 200 µM and the IC50 was determined as 1.26 µM.
On to `NC(CSCCCO)C(=O)O` (stereo not drawn), for which the result was inactive.
Regarding `CC(C)N(C(=O)C12C3(C(=O)C(C)(C)C)C4C5(C#N)C3C1(C(=O)C(C)(C)C)C5C42C(=O)C(C)(C)C)C(C)C` (stereo not drawn), the EC50 was over 151 µM and the IC50 was over 151 µM.
`CC(OC1CC(=O)CC2C(=O)C=CC(=O)C12)c1ccccc1` (stereo not drawn): the EC50 is over 603 µM and the IC50 is 3.31 µM.
Taken in the same sequence, the figures for `COc1ccc(NC(=S)Nc2ccccn2)cc1` were over 200 µM and over 200 µM.
For `O=C1c2ccccc2C(=O)c2c1sc1nc3ccccc3n21`, in that order: over 200 µM and 8.91 µM.
`O=C(CC(=O)c1cccc2ccccc12)C(=O)Nc1ccc(Cl)cc1`: the outcome was inactive.
Regarding `COc1ccc2c3c(coc13)C(CCC(=O)O)CC2` (stereo not drawn), the outcome was inactive.
On to `Cn1c(=O)c2nncnc2n(C)c1=O`, for which the EC50 was over 200 µM and the half-maximal inhibitory concentration (IC50) is over 200 µM.
